Measured values taken from ChEMBL document CHEMBL1124699, “3-Hydroxy-3-methylglutaryl-coenzyme A reductase inhibitors. 6. Trans-6-[2-(substituted-1-naphthyl)ethyl(or ethenyl)]-3,4,5,6-tetrahydro-4-hydroxy-2H-pyran-2-ones” (J Med Chem, 1990).

How the values were obtained:
[1] = target: T1, 3-hydroxy-3-methylglutaryl-coenzyme A reductase (Rattus norvegicus, UniProt P51639); assay: Inhibitory activity against HMG-CoA reductase
T1 sequence (P51639 whole entry): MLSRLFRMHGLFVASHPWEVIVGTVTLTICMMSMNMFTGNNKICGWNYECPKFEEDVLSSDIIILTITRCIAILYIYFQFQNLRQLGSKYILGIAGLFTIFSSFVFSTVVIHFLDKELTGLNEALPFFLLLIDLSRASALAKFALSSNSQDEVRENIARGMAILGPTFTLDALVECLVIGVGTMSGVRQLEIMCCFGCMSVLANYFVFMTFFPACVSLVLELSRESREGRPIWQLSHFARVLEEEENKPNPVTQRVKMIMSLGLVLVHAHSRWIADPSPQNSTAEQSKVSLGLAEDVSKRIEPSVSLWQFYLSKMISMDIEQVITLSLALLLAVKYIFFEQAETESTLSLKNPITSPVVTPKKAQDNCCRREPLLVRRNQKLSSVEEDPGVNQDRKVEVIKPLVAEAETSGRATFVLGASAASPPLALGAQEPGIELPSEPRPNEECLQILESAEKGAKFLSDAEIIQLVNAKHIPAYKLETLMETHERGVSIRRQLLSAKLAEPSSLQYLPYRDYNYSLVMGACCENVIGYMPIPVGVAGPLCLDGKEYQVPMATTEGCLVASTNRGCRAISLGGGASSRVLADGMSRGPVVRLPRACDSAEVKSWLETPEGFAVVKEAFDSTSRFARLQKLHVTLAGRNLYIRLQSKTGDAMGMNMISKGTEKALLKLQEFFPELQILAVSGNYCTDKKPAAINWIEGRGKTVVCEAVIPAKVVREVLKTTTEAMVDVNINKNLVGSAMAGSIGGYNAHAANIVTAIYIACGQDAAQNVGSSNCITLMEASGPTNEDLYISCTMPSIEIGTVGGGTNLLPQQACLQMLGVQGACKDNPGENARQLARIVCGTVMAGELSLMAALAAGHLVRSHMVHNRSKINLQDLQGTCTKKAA

[2] = target: T2, 3-hydroxy-3-methylglutaryl-coenzyme A reductase (Rattus norvegicus) (UniProt P51639); assay: Potency against HMG-CoA reductase relative to Compactin
T2 sequence (whole entry): T1 sequence (P51639 whole entry)

| Compound | IC50 [1] [nM] | Relative potency [2] |
| --- | --- | --- |
| O=C1C[C@H](O)C[C@@H](/C=C/c2cccc3cccc(Br)c23)O1 | 4120 | 0.72 |
| O=C1C[C@H](O)CC(CCc2ccc(Cl)c3cc(Cl)ccc23)O1 (some centres undefined) | 7000 | 0.3 |
| O=C1C[C@H](O)CC(CCc2cccc3ccccc23)O1 (some centres undefined) | 81000 | 0.043 |
| Cc1cc(Cl)c(CCC2C[C@@H](O)CC(=O)O2)c2cc(Cl)ccc12 (some centres undefined) | 130 | 15 |
| O=C1C[C@H](O)C[C@@H](/C=C/c2c(Cl)ccc3ccccc23)O1 | 1510 | 2.3 |

Other lines, results leading:

| IC50 [1] [nM] | Relative potency [2] | Compound |
| --- | --- | --- |
| 32 | 47 | O=C1C[C@H](O)CC(CCc2c(Cl)cc(Cl)c3ccc(Cl)cc23)O1 (some centres undefined) |
| 23300 | 0.15 | O=C1C[C@H](O)CC(CCc2ccc(Br)c3ccccc23)O1 (some centres undefined) |
| 4000 | 0.96 | O=C1C[C@H](O)C[C@@H](/C=C/c2ccc(Br)c3ccccc23)O1 |
| 200 | 7 | Cc1cc(C)c2ccc(Cl)cc2c1CCC1C[C@@H](O)CC(=O)O1 (some centres undefined) |
| 360 | 5 | Cc1ccc2c(C)cc(C)c(CCC3C[C@@H](O)CC(=O)O3)c2c1 (some centres undefined) |
| 60 | 30 | Cc1cc(Cl)c2ccc(Cl)cc2c1CCC1C[C@@H](O)CC(=O)O1 (some centres undefined) |
| 33 | 46 | O=C1C[C@H](O)CC(CCc2c(Cl)cc(Cl)c3cc(Cl)ccc23)O1 (some centres undefined) |
